Tested on: aerobic bacteria
Assay: Dissolved oxygen measurement in an illuminated microalgae-bacteria culture sample with successive additions of substrate and inhibitor (Example 2, FIG. 4)
Type: cell-based
Settings: culture of Nannochloropsis oculata sp. 0.3 g/L and aerobic bacteria 0.05 g/L
Method: A sample of a culture comprising microalgae of the type Nannochloropsis oculata sp. in a concentration of 0.3 g/L. and aerobic bacteria in a concentration of 0.05 g/L was transferred from a bioreactor to a chamber having a volume of 300 mL and comprising a magnetic stirrer and a source for emitting light. The source for emitting light comprised light-emitting diode strings located around the chamber.
During the whole experiment, the chamber was provided with light. In other words, several illumination steps were carried out successively, in order to conduct, during each illumination step, the measurement of the dissolved oxygen present in the sample. This measurement was carried out with a Luminescent Dissolved Oxygen (LDO) sensor (HACH) inserted in the chamber. After each illumination step, the sample was returned to the bioreactor and replaced with a new sample.
More particularly, after point 11, a total amount of 70 mg/L of CuSO4 was added to the sample.

`O=S(=O)([O-])[O-].[Cu+2]` [CuSO4] was tested, and the “effect on the activity of bacteria (oxygen production rate of the sample)” value (successive additions 1 to 11, total 70 mg/L CuSO4 after point 11) was “increasing inhibitory effect”.

With `CCO` [ethanol] the “effect on the activity of bacteria (dissolved oxygen concentration, oxygen consumption by respiration)” value (after each addition (1 to 11) of substrate) was “increases the activity of bacteria”.

Reference: patent publication US20220220527A1, “METHOD FOR MEASURING THE ACTIVITY OF A CULTURE OF MICROALGAE” (TotalEnergies SE, priority 2019, published 2022)
